In this test the target is T1, human capsaicin receptor (Homo sapiens, UniProt Q8NER1).
T1 construct: A cDNA encoding full length human capsaicin receptor recited in U.S. Pat. No. 6,482,611 was subcloned in the plasmid pBK-CMV; expressed in transfected cells
Nature of the test: Calcium mobilization assay (Example 6). The format is cell-based. The following applies: concentration required to provide a 50% decrease in the fluorescence response of cells exposed to one IC50 of capsaicin. A digest of the protocol: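 HEK293 clonal lines stably expressing full-length human capsaicin receptor, Fluo-3 AM loaded in KRH buffer pH 7.4. Compounds (final 1-5 μM) preincubated 0.5-6 h at room temperature in the dark, then capsaicin added at its predetermined IC50 concentration. FLIPR calcium signal at 30-60 s; IC50 = antagonist concentration giving 50% decrease.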

T1 sequence (Q8NER1 whole entry): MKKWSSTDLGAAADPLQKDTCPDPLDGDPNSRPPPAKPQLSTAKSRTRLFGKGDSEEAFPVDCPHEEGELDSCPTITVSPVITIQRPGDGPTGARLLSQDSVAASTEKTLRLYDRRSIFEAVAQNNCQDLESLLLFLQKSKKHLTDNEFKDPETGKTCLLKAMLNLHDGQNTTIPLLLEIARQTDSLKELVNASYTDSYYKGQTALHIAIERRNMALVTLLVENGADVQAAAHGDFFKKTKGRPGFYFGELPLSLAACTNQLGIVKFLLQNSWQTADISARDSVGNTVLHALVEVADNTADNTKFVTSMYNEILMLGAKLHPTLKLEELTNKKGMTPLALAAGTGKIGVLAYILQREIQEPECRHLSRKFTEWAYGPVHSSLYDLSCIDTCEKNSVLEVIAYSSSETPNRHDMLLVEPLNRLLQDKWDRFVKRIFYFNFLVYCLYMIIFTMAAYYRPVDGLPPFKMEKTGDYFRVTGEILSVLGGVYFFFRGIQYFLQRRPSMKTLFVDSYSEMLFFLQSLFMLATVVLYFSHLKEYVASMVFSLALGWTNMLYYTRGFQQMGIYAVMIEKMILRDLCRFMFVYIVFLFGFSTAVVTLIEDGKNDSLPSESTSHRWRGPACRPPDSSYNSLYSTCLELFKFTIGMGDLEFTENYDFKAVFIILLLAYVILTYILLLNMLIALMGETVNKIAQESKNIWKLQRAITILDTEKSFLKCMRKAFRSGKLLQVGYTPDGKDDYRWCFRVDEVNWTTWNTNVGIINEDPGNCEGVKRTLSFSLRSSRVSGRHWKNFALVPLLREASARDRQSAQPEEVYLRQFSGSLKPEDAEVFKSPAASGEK

As for `CCOc1cc(Nc2ccc(C(F)(F)F)cn2)c2ccc(-c3ncccc3C(F)(F)F)nc2n1` [Compound 45, 2-ethoxy-7-[3-(trifluoromethyl)pyridin-2-yl]-N-[5-(trifluoromethyl)pyridin-2-yl]-1,8-naphthyridin-4-amine], the IC50 was not above 1000 nM. With `C[C@@H]1CN(Cc2cc(Nc3ccc(C(F)(F)F)cc3)c3ccc(-c4ncccc4C(F)(F)F)nc3n2)C[C@H](C)O1` [Compound 24, 2-{[(2R,6S)-2,6-dimethylmorpholin-4-yl]methyl}-N-[4-(trifluoromethyl)phenyl]-7-[3-(trifluoromethyl)pyridin-2-yl]-1,8-naphthyridin-4-amine] the figure was not above 1000 nM.

For `FC(F)(F)c1ccc(Nc2cc(CN3CCC3)nc3nc(-c4ncccc4C(F)(F)F)ccc23)cc1` [Compound 55, 2-(azetidin-1-ylmethyl)-N-[4-(trifluoromethyl)phenyl]-7-[3-(trifluoromethyl)pyridin-2-yl]-1,8-naphthyridin-4-amine], the IC50 is not above 1000 nM. The value for `CC(C)COCc1cc(Nc2ccc(C(F)(F)F)cn2)c2ccc(-c3ncccc3C(F)(F)F)nc2n1` [Compound 44, 2-(isobutoxymethyl)-7-[3-(trifluoromethyl)pyridin-2-yl]-N-[5-(trifluoromethyl)pyridin-2-yl]-1,8-naphthyridin-4-amine] was not above 1000 nM. On to `CC1CCCN1Cc1cc(Nc2ccc(C(F)(F)F)cn2)c2ccc(-c3ncccc3C(F)(F)F)nc2n1` (stereo not drawn) [Compound 93, 2-[(2-methylpyrrolidin-1-yl)methyl]-7-[3-(trifluoromethyl)pyridin-2-yl]-N-[5-(trifluoromethyl)pyridin-2-yl]-1,8-naphthyridin-4-amine], for which the IC50 is not above 1000 nM. In the case of `CCCOCc1cc(Nc2ccc(C(F)(F)F)cc2)c2ccc(-c3ncccc3C(F)(F)F)nc2n1` [Compound 43, 2-(propoxymethyl)-N-[4-(trifluoromethyl)phenyl]-7-[3-(trifluoromethyl)pyridin-2-yl]-1,8-naphthyridin-4-amine], the IC50 was not above 1000 nM. With `CN(C)CCOCc1cc(Nc2ccc(C(F)(F)F)cc2)c2ccc(-c3ncccc3C(F)(F)F)nc2n1` [Compound 25, 2-{[2-(dimethylamino)ethoxy]methyl}-N-[4-(trifluoromethyl)phenyl]-7-[3-(trifluoromethyl)pyridin-2-yl]-1,8-naphthyridin-4-amine] the figure was not above 1000 nM; with `CC(C)CNc1cc(Nc2ccc(C(F)(F)F)cn2)c2ccc(-c3ncccc3C(F)(F)F)nc2n1` [Compound 130, N~2~-isobutyl-7-[3-(trifluoromethyl)pyridin-2-yl]-N~4~-[5-(trifluoromethyl)pyridin-2-yl]-1,8-naphthyridine-2,4-diamine], not above 1000 nM; with `CCCc1cc(Nc2ccc(S(C)(=O)=O)cn2)c2ccc(-c3ncccc3C(F)(F)F)nc2n1` [Compound 123, N-[5-(methylsulfonyl)pyridin-2-yl]-2-propyl-7-[3-(trifluoromethyl)pyridin-2-yl]-1,8-naphthyridin-4-amine], not above 1000 nM. The value for `CC(C)NCc1cc(Nc2ccc(C(F)(F)F)cc2)c2ccc(-c3ncccc3C(F)(F)F)nc2n1` [Compound 58, 2-[(isopropylamino)methyl]-N-[4-(trifluoromethyl)phenyl]-7-[3-(trifluoromethyl)pyridin-2-yl]-1,8-naphthyridin-4-amine] was not above 1000 nM; that for `CC(=O)c1ccc(Nc2cc(COCC(C)C)nc3nc(-c4ncccc4C(F)(F)F)ccc23)cc1` [Compound 56, 1-[4-({2-(isobutoxymethyl)-7-[3-(trifluoromethyl)pyridin-2-yl]-1,8-naphthyridin-4-yl}amino)phenyl]ethanone] was not above 1000 nM. With `COCc1cc(Nc2ccc3c(c2)NCCC3(C)C)c2ccc(-c3ncccc3C(F)(F)F)nc2n1` [Compound 16, N-(4,4-dimethyl-1,2,3,4-tetrahydroquinolin-7-yl)-2-(methoxymethyl)-7-[3-(trifluoromethyl)pyridin-2-yl]-1,8-naphthyridin-4-amine] the figure was not above 1000 nM; with `COCc1cc(Nc2ccc(Cl)c(F)c2)c2ccc(-c3ncccc3C(F)(F)F)nc2n1` [Compound 10, N-(4-chloro-3-fluorophenyl)-2-(methoxymethyl)-7-[3-(trifluoromethyl)pyridin-2-yl]-1,8-naphthyridin-4-amine], not above 1000 nM; with `N#Cc1cc(Nc2ccc(C(F)(F)F)cn2)c2ccc(-c3ncccc3C(F)(F)F)nc2n1` [Compound 125, 7-[3-(trifluoromethyl)pyridin-2-yl]-4-{[5-(trifluoromethyl)pyridin-2-yl]amino}-1,8-naphthyridine-2-carbonitrile], not above 1000 nM. In the case of `CC(C)COCc1cc(Nc2ccc(C(C)(C)O)cc2)c2ccc(-c3ncccc3C(F)(F)F)nc2n1` [Compound 57, 2-[4-({2-(isobutoxymethyl)-7-[3-(trifluoromethyl)pyridin-2-yl]-1,8-naphthyridin-4-yl}amino)phenyl]propan-2-ol], the IC50 is not above 1000 nM. For the molecule `FC(F)(F)c1cnc(Nc2ccnc3nc(-c4ncccc4Cl)ccc23)cn1` [Compound 138, 7-(3-chloropyridin-2-yl)-N-[5-(trifluoromethyl)pyrazin-2-yl]-1,8-naphthyridin-4-amine], the IC50 was not above 1000 nM. In the case of `COCc1cc(Nc2ccc(C(F)(F)F)cn2)c2ccc(-c3ncccc3C(F)(F)F)nc2n1` [Compound 14, 2-(methoxymethyl)-7-[3-(trifluoromethyl)pyridin-2-yl]-N-[5-(trifluoromethyl)pyridin-2-yl]-1,8-naphthyridin-4-amine], the IC50 is not above 1000 nM. With `Cc1cc(Nc2ccc(C(F)(F)F)cc2)c2ccc(-c3ncccc3C(F)(F)F)nc2n1` [Compound 48, 2-methyl-N-[4-(trifluoromethyl)phenyl]-7-[3-(trifluoromethyl)pyridin-2-yl]-1,8-naphthyridin-4-amine] the figure was not above 1000 nM. Take `FC(F)(F)c1ccc(Nc2cc(CN3CCCCC3)nc3nc(-c4ncccc4C(F)(F)F)ccc23)nc1` [Compound 92, 2-(piperidin-1-ylmethyl)-7-[3-(trifluoromethyl)pyridin-2-yl]-N-[5-(trifluoromethyl)pyridin-2-yl]-1,8-naphthyridin-4-amine]: the IC50 was not above 1000 nM. The value for `CCOc1cc(Nc2ccc(C(C)(C)C)cc2)c2ccc(-c3ncccc3C(F)(F)F)cc2n1` [Compound 30, N-(4-tert-butylphenyl)-2-ethoxy-7-[3-(trifluoromethyl)pyridin-2-yl]quinolin-4-amine] was not above 1000 nM. The value for `N#Cc1ccc(Nc2cc(C3CCC3)nc3nc(-c4ncccc4C(F)(F)F)ccc23)nc1` [Compound 100, 6-({2-cyclobutyl-7-[3-(trifluoromethyl)pyridin-2-yl]-1,8-naphthyridin-4-yl}amino)nicotinonitrile] was not above 1000 nM; that for `CN1CCCC(c2cc(Nc3ccc(C(F)(F)F)cn3)c3ccc(-c4ncccc4C(F)(F)F)nc3n2)C1` (stereo not drawn) [Compound 124, 2-(1-methylpiperidin-3-yl)-7-[3-(trifluoromethyl)pyridin-2-yl]-N-[5-(trifluoromethyl)pyridin-2-yl]-1,8-naphthyridin-4-amine] was not above 1000 nM.

On to `CC(O)COCc1cc(Nc2ccc(C(F)(F)F)cc2)c2ccc(-c3ncccc3C(F)(F)F)nc2n1` (stereo not drawn) [Compound 66, 1-({4-{[4-(trifluoromethyl)phenyl]amino}-7-[3-(trifluoromethyl)pyridin-2-yl]-1,8-naphthyridin-2-yl}methoxy)propan-2-ol], for which the half-maximal inhibitory concentration (IC50) is not above 1000 nM. The value for `COCc1nc2nc(-c3ncccc3C(F)(F)F)ccc2c(Nc2ccc(C(F)(F)F)cc2)c1C(=O)O` [Compound 6, 2-(methoxymethyl)-4-{[4-(trifluoromethyl)phenyl]amino}-7-[3-(trifluoromethyl)pyridin-2-yl]-1,8-naphthyridine-3-carboxylic acid] was not above 1000 nM; that for `CC(C)CN(C)Cc1cc(Nc2ccc(C(F)(F)F)cc2)c2ccc(-c3ncccc3C(F)(F)F)nc2n1` [Compound 60, 2-{[isobutyl(methyl)amino]methyl}-N-[4-(trifluoromethyl)phenyl]-7-[3-(trifluoromethyl)pyridin-2-yl]-1,8-naphthyridin-4-amine] was not above 1000 nM. The value for `CC(=O)c1ccc(Nc2cc(COCC(C)C)nc3nc(-c4ncccc4Cl)ccc23)cc1` [Compound 63, 1-(4-{[7-(3-chloropyridin-2-yl)-2-(isobutoxymethyl)-1,8-naphthyridin-4-yl]amino}phenyl)ethanone] was not above 1000 nM; that for `CC(C)COCc1cc(Nc2ccc(S(=O)(=O)C(C)C)cc2)c2ccc(-c3ncccc3C(F)(F)F)nc2n1` [Compound 72, 2-(isobutoxymethyl)-N-[4-(isopropylsulfonyl)phenyl]-7-[3-(trifluoromethyl)pyridin-2-yl]-1,8-naphthyridin-4-amine] was not above 1000 nM; that for `CN(C)Cc1cc(Nc2ccc(C(F)(F)F)cn2)c2ccc(-c3ncccc3C(F)(F)F)nc2n1` [Compound 89, 2-[(dimethylamino)methyl]-7-[3-(trifluoromethyl)pyridin-2-yl]-N-[5-(trifluoromethyl)pyridin-2-yl]-1,8-naphthyridin-4-amine] was not above 1000 nM.

As to `CC(C)COCc1cc(Nc2ccc(Br)cn2)c2ccc(-c3ncccc3C(F)(F)F)nc2n1` [Compound 61, N-(5-bromopyridin-2-yl)-2-(isobutoxymethyl)-7-[3-(trifluoromethyl)pyridin-2-yl]-1,8-naphthyridin-4-amine], the IC50 was not above 1000 nM.

With `OCc1cc(Nc2ccc(C(F)(F)F)cc2)c2ccc(-c3ncccc3C(F)(F)F)nc2n1` [Compound 5, {4-{[4-(trifluoromethyl)phenyl]amino}-7-[3-(trifluoromethyl)pyridin-2-yl]-1,8-naphthyridin-2-yl}methanol], the IC50 was not above 1000 nM.

Values taken from US7488740B2, “Substituted quinolin-4-ylamine analogues” (Neurogen Corporation, priority 2003, dated 2009).
